Results taken from ChEMBL document CHEMBL1240370, “Effects of immunomodulatory and organism-associated molecules on the permeability of an in vitro blood-brain barrier model to amphotericin B and fluconazole” (Antimicrob Agents Chemother, 2010).

Experiments:
Format in all cases: ADME, cell-based, Bos taurus
Details in all cases: cattle, c6, 24 h
[1] = Permeability across BBMEC cocultured with rat C6 cell BBB model after 24 hrs in presence of 0.01 ug/ml tacrolimus-506
[2] = Permeability across BBMEC co-cultured with rat C6 cell BBB model after 24 hrs in presence of 0.01 ug/ml interleukin-1
[3] = Permeability across BBMEC cocultured with rat C6 cell BBB model after 24 hrs in presence of 0.1 ug/ml TNF
[4] = Permeability across BBMEC cocultured with rat C6 cell BBB model after 24 hrs in presence of 0.01 ug/ml TNF
[5] = Permeability across BBMEC cocultured with rat C6 cell BBB model after 24 hrs in presence of 0.1 ug/ml Dexamethasone
[6] = Permeability across BBMEC cocultured with rat C6 cell BBB model after 24 hrs in presence of 0.1 ug/ml tacrolimus-506
[7] = Permeability across BBMEC cocultured with rat C6 cell BBB model after 24 hrs in presence of 0.1 ug/ml lipoteichoic acid
[8] = Permeability across BBMEC cocultured with rat C6 cell BBB model after 24 hrs in presence of 1 ug/ml lipopolysaccharide
[9] = Permeability across BBMEC cocultured with rat C6 cell BBB model after 24 hrs in presence of 0.1 ug/ml interleukin-2
[10] = Permeability across BBMEC cocultured with rat C6 cell BBB model after 24 hrs in presence of 1 ug/ml Dexamethasone
[11] = Permeability across BBMEC cocultured with rat C6 cell BBB model after 24 hrs in presence of 0.1 ug/ml lipopolysaccharide

Measured: permeability

OC(Cn1cncn1)(Cn1cncn1)c1ccc(F)cc1F [FLUCONAZOLE]
permeable: all assays above
